From patent publication US9434718B2, “TOFA analogs useful in treating dermatological disorders or conditions” (Dermira (Canada), Inc., priority 2009, dated 2016)
Converted amounts (≈) assume the structure as drawn.

Assays:
[1] = test system: hamster ear sebaceous glands; test: Hamster ear sebaceous gland model, repeat topical application; assay type: in vivo, Syrian golden hamster
Protocol: The Syrian golden hamster ([…]) ear sebaceous gland model was used to evaluate the effect of repeat application of TOFA and TOFA analogs. Male animals were employed since they have larger sebaceous glands than females a consequence of their higher endogenous levels of androgenic hormones. To define compound effects, cross-sections prepared from hamster ears were treated with the neutral lipid-specific stain Oil Red O. Staining results were compared to the untreated ear of the same animal in order to account for any changes in the overall physiological state of the animal as well as potential systemic effects stemming from local drug application.
Typically, compounds were prepared and applied in 40% dimethyl acetamide (DMA)/30% acetone/30% ethanol (vehicle). Animals were typically 10-12 weeks of age and 100-150 g bodyweight at the start of the experiment. Treatment groups consisted of 5-8 animals. Non-anesthetized hamsters were administered the test material onto the ventral surface of the right ear using a pipette at a volume of 20 μl per ear. Materials were gently massaged into the treatment site with a gloved finger for approximately 15 sec. Hamsters received treatment once daily for 15-28 consecutive days. Application of the test articles occurred within the same 4-hour period on each application day. The left ear remained untreated and served as an internal control site. Animals were evaluated daily for general appearance and potential clinical signs related to treatment such as edema, erythema, discoloration or other changes to the ears. Hamsters were also assessed for general health by coat appearance, behavior, and activity level.
Animals were euthanized by CO2 asphyxiation approximately 16-20 h following the final (21st) application. Tissue samples for sebaceous gland analysis were subsequently taken by histology personnel. The right (treated) and left (untreated) ears were carefully removed from euthanized hamsters. A 3.5 mm punch biopsy of the treated ear was marked with a marking dye on the ventral surface. A punch biopsy of the untreated ear was marked with a separate tissue-marking dye on the ventral surface. Tissues were embedded in a labeled mold filled with “Neg 50” cryo-embedding medium and frozen on liquid nitrogen. These blocks were sequentially wrapped in Parafilm® then aluminum foil for storage at −70° C. until required.
To assess sebaceous gland status, ear cross-sections were initially cut at a thickness of approximately 8 μm onto glass slides and immediately fixed with 10% buffered formalin. Sections were stained with the lipid-specific Oil Red O dye by standard methods, covered with Faramount (Dakocytomation, Ca) acrylic mounting medium, cover slipped and then allowed to set. […] Tissue sections stained with Oil Red O were viewed with a Spot RT digital camera mounted on an Olympus BX60 microscope. An image of the section was taken using the 4× microscope objective. The image was saved using the unique animal identification number, slide number, and magnification. Relative sebaceous gland areas (red staining areas) were determined using Image-Pro software (Media Cybernetics Inc., Silver Spring, Md.). The area of image analysis was the dermis which included the region from the epidermal-dermal junction to the midline of the tissue demarcated by the central cartilage line. Data was expressed as percentage of the area of the tissue cross section which was red in color, representative of lipid-containing structures, in comparison to the total area analyzed.
In these experiments, the compound of the invention, TOFA and vehicle were applied onto male hamster ears. At the end of treatment, the hamsters were sacrificed and the area of sebaceous glands in the treated area was determined. […]

[2] = Determination of solubility in synthetic sebum; assay type: physicochemical; settings: oil or lipid, thermodynamic from solid, 32° C., agitated overnight, HPLC, read-out: Solubility in Liquid Synthetic Sebum
Protocol: Compounds described herein can be tested to evaluate their solubility in lipids. To determine the solubility, a synthetic sebum mixture was used. More specifically, approximately 5 mg of a compound was added into 1.5 ml eppendorf tubes, which was then combined with 0.1 ml of synthetic sebum and then briefly vortexed. Mixtures were placed samples in a shaker pre-heated to 32° C. and then agitated overnight. Prior to sampling for HPLC analysis, tubes were placed in an eppendorf centrifuge and spun at 13000 rpm for 5 min to pellet the insoluble drug portion. Following centrifugation, 20 ul of the top portion of the soluble fraction was sampled, in triplicate, into a 2 ml HPLC vial for analysis and the mass recorded. One ml of THF was then added to each vial to solubilize sebum. To determine their concentrations, HPLC analysis of all compounds was carried out under the same running conditions.

[3] = test system: moderate to severe acne patients; settings: oral, at 12 weeks; cited from earlier work
SZ95 sebocytes = test: Inhibition of lipid synthesis in SZ95 sebocytes; assay type: cell-based, human; settings: 96-well microtiter plate format
Protocol: The immortalized human sebocyte cell line, SZ95, was maintained in culture as described in Zouboulis, C. C. et al., J. Invest. Dermatol. (1999), Vol. 113, pp. 1011-1020. Lipid synthesis was stimulated by treating SZ95 cells with arachidonic acid (AA). For measurement of lipid production and lipid inhibition studies, test compounds were dissolved in dimethylsulfoxide (DMSO) and added at the desired concentration in 96-well microtiter plates. The cells were then cultured for up to 72 hours before the plates were washed 3 times with PBS and a final volume of 200 μL PBS/well was added. […] Plate fluorescence was then quantified using a fluorometric plate reader (excitation wavelength: 490 nm; emission wavelength: 590 nm). Inhibition of lipid levels by the test compound was expressed as the % reduction of the fluorescence of AA-stimulated cells in the presence of the test compound relative to the values obtained for the unstimulated control cells. Cell viability was measured by utilizing the conversion of a tetrazolium reagent (MTS) to a colored-formazan product by live cells. […] The color development of the wells was measured using a plate reader at an absorbance of […]. Effect on cell viability by the test compound was expressed as the % reduction of the absorbance for AA-stimulated cells in the presence of the test compound relative to the values obtained for the untreated control cells.

[4] = 21 consecutive days, 75 mM, ear cross-sections (FIG. 3)

CCCCCCCCCCCCCCOc1ccc(C(=O)OCC(F)(F)F)o1 [Compound A, 2,2,2-trifluoroethyl 5-(tetradecyloxy)furan-2-carboxylate]
inflammatory cell presence in skin sections [1, 4]: No appreciable inflammatory cell presence | sebaceous gland area, histological appearance (Oil Red O) [1, 4]: Reduced sebaceous gland area | average gland area lower in comparison to vehicle-treated animals ([1]; after 21 days of application in 40% DMA/30% acetone/30% ethanol (FIG. 2)): 63.5% | sebaceous gland counts versus control values ([1]; samples prepared two weeks after completion of 21-day treatment): significantly lower | sebaceous gland area compared to TOFA and vehicle (FIG. 1) ([1]; topical daily at 75 mM for 21 days in 40% DMA/30% acetone/30% ethanol): ability to reduce sebaceous gland area | solubility [2]: 28.9 ± 9.2 mg/mL (≈ 71.1 mM)

CCCCCCCCCCCCCCOc1ccc(C(=O)OC(C)C)o1 [Compound B, isopropyl 5-(tetradecyloxy)furan-2-carboxylate]
solubility [2]: 43 ± 0.5 mg/mL (≈ 117 mM)

CCCCCCCCCCCCCCOc1ccc(C(=O)OCc2oc(=O)oc2C)o1 [Compound C, (5-methyl-2-oxo-1,3-dioxol-4-yl)methyl 5-(tetradecyloxy)furan-2-carboxylate]
solubility [2]: 13.6 ± 1.9 mg/mL (≈ 31.2 mM)

CCCCCCCCCCCCCCOc1ccc(C(=O)O)o1 [TOFA, 5-(tetradecyloxy)-2-furancarboxylic acid]
inflammatory cell presence in skin sections [1, 4]: No appreciable inflammatory cell presence | tolerability of repeat topical applications ([1]; hamster, in vivo): well-tolerated | solubility [2]: 1.5 ± 0.4 mg/mL (≈ 4.62 mM)

CC(c1cc2ccccc2s1)N(O)C(N)=O (centres unmarked) [Zileuton]
reduction in inflammatory lesions [3]: 71% | reduction of sebum lipids [3]: 65%

CCCCC/C=C\C/C=C\C/C=C\C/C=C\CCCC(=O)O [arachidonic acid]
increase of SZ95 sebocyte lipid levels (SZ95 sebocytes): approximately 5 fold
